Here are results for ten compounds from patent US6455550B1, “N-alkanoylphenylalanine derivatives” (Hoffmann-La Roche Inc., priority 1997, dated 2002).

The target of data set [1] is T1, VLA-4 (α4β1 integrin) binding to immobilized VCAM-1 (Homo sapiens, UniProt P05556+P13612).
T1 construct: followed by 10 μl of Ramos cell-derived VLA-4; endogenous in cells; host or cells: Ramos cells (VLA-4 preparation derived from the cells)
The data set can be described thus: VLA-4/VCAM-1 Screening Assay (solid-phase, dual antibody ELISA). The note with it: Ramos cell-derived VLA-4, recombinant human VCAM-1 coated plates, 2 hr at 37° C. The essentials: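 Recombinant human VCAM-1 is coated onto plates and Ramos cell-derived VLA-4 is added with compound (final DMSO 5%) in Tris buffer pH 7.4 with 1 mM MnCl2 and 1 mg/mL BSA, 2 hr at 37° C. Bound VLA-4 is detected by anti-β1 antibody, HRP anti-mouse IgG and K-Blue colorimetry. Results are % inhibition of total binding.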

The target of data set [2] is T2, cell-surface VLA-4 (α4β1 integrin) on Ramos cells binding to immobilized VCAM-1 (Homo sapiens, UniProt P05556+P13612).
T2 construct: Ramos cells bearing cell-surface VLA-4; endogenous in cells; host or cells: Ramos cells (VLA-4); VCAM-1 purified from CHO cell culture media
The data set can be described thus: Ramos (VLA-4)/VCAM-1 Cell-Based Screening Assay (cell adhesion). Particulars: Calcein-AM labeled Ramos cells, VCAM-1 coated plates, 45 min at room temperature. The source says:
Calcein-AM was purchased from Molecular Probes Inc.
VLA-4 (α4β1 integrin) antagonist activity, defined as ability to compete with cell-surface VLA-4 for binding to immobilized VCAM-1, was quantitated using a Ramos-VCAM-1 cell adhesion assay. Ramos cells bearing cell-surface VLA-4, were labeled with a fluorescent dye (Calcein-AM) and allowed to bind VCAM-1 in the presence or absence of test compounds.
Initially, this entailed coating 96 well plates (Nunc Maxisorp) with recombinant human VCAM-1 (100 ng in 100 μl PBS), sealing each plate and allowing the plates to stand at 4° C for Å18 hr. The VCAM-coated plates were subsequently washed twice with 0.05% Tween-20 in PBS, and then blocked for 1hr (room temperature) with 200 μl of Blocking Buffer (1% BSA/0.02% thimerosal) to reduce non-specific binding. Following the incubation with Blocking Buffer, plates were inverted, blotted and the remaining buffer aspirated. Each plate was then washed with 300 μl PBS, inverted and the remaining PBS aspirated.
Test compounds were dissolved in 100% DMSO and then diluted 1:25 in VCAM Cell Adhesion Assay Buffer (4 mM CaCl2, 4 mM MgCl2 in 50 mM TRIS-HCl, pH 7.5) (final DMSO=4%). […] 100 μl/well of each dilution was added to the VCAM-coated plates, followed by 100 μl of Ramos cells (200,000 cells/well in 1% BSA/PBS). […] Plates were inverted to remove non-adherent cells, blotted and 300 μl/well PBS added. Plates were again inverted, blotted and the remaining buffer gently aspirated. 100 μl Lysis Buffer (0.1% SDS in 50 mM TRIS-HCl, pH 8.5) was added to each well and agitated for 2 min on a rotary shaking platform.

Setting [3] is: IC50 in Ramos Cell Based Assay (nM).
The mark [4] stands for this setting: read-out: IC50 in Ramos Cell Based Assay.

For orientation: IC50 means the point on the concentration scale where inhibition reaches its midpoint. For orientation: melting point means the temperature, or range, at which the solid turns liquid.

Where two headings read alike, the source gives them in different places.

T2 sequence (P13612 34-1032): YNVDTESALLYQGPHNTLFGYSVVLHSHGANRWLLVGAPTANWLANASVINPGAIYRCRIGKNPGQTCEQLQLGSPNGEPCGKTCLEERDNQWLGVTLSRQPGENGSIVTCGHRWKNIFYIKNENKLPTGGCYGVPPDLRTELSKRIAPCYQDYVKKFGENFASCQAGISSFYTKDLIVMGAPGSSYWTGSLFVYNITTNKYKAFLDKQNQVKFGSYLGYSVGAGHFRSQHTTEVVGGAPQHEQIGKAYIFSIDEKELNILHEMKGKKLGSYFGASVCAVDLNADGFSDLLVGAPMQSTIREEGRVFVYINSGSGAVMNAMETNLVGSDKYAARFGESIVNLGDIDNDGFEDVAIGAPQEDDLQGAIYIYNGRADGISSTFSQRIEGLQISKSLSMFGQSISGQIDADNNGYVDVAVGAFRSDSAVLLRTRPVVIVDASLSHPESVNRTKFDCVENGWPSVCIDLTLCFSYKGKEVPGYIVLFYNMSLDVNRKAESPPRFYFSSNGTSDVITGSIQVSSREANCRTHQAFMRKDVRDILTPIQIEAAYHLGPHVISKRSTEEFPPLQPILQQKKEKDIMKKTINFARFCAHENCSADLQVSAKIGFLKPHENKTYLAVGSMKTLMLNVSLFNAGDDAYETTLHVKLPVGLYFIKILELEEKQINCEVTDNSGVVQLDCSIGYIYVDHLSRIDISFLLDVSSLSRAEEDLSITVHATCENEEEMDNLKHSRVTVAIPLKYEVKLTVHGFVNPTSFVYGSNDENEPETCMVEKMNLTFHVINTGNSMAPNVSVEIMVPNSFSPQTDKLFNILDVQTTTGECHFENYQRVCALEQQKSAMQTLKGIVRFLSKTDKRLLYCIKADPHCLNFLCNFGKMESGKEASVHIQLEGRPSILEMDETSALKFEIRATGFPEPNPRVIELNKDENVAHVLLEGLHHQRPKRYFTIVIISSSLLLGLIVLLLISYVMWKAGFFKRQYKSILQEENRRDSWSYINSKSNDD
T2 sequence (P05556 21-798): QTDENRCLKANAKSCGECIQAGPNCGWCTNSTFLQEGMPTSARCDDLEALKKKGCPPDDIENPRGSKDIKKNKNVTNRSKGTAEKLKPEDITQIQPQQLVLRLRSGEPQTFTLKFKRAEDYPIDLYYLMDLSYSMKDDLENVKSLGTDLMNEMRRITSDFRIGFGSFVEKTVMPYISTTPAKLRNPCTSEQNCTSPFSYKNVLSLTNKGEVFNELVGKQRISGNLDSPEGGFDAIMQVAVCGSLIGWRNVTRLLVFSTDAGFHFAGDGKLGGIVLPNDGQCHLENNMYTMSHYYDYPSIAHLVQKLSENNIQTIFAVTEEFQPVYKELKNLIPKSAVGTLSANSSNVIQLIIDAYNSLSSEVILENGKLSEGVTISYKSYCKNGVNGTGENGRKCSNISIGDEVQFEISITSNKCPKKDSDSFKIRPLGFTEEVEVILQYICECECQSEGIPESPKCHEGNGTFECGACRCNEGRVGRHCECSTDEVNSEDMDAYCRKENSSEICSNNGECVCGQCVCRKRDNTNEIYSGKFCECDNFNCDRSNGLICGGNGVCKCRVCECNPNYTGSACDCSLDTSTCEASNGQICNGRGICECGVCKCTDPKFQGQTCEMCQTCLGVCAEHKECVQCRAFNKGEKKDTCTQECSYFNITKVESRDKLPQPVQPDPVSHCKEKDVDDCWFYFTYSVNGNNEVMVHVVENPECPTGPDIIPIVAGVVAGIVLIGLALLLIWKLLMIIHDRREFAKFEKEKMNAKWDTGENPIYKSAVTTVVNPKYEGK
T1 sequence (P13612 34-1032): as the sequence (P13612 34-1032) above
T1 sequence (P05556 21-798): as the sequence (P05556 21-798) above

Consider `COCCC1(C(=O)N[C@@H](Cc2ccc(N3C(=O)c4ccc(C#N)cc4C3=O)cc2)C(=O)O)CCCC1` [Example 371, 4-(5-Cyano-1,3-dioxo-2H-isoindol-2-yl)-N-[[1-(2-methoxyethyl)cyclopentyl]carbonyl]-L-phenylalanine], for which the melting point was in the range of 143 to 146 °C. In data set [1] (read-out: IC50), the IC50 was found to be 1.65 nM.

The compound `C[S+]([O-])CCC1(C(=O)N[C@@H](Cc2ccc(NC(=O)c3c(Cl)cccc3Cl)cc2)C(=O)O)CCCC1` (some centres unmarked) [Example 357] returned a melting point of 255 to 258 °C. In addition, in data set [2] (setting [3]), the IC50 was 25 nM.

With `COCCC1(C(=O)N[C@@H](Cc2ccc(NC(=O)c3cc(C#N)ccc3Cl)cc2)C(=O)OC)CCCC1` [Example 362, 4-[(2-Chloro-5-cyanophenylcarbonyl)amino]-N-[[1-(2-methoxyethyl)cyclopentyl]carbonyl]-L-phenylalanine Methyl Ester], the melting point lay in the range of 172 to 175 °C.

For the compound `COCCC1(C(=O)N[C@@H](Cc2ccc(NC(=O)c3c(Cl)cccc3Cl)cc2)C(=O)O)CCCC1` [Example 398, 4-[[(2,6-Dichlorophenyl)carbonyl]amino]-N-[[1-(2-methoxyethyl)cyclopentyl]carbonyl]-L-phenylalanine], the melting point is 136 to 140 °C.

Take `COCCC1(C(=O)N[C@@H](Cc2ccc(NC(=O)c3cc(C#N)ccc3Cl)cc2)C(=O)O)CCCC1` [Example 363, 4-[(2-Chloro-5-cyanophenylcarbonyl)amino]-N-[[1-(2-methoxyethyl)cyclopentyl]carbonyl]-L-phenylalanine]: the melting point fell in the range of 169 to 172 °C. Besides, the IC50 in data set [1] (read-out: IC50) is 0.64 nM. The IC50 in data set [2] (setting [4]) was 11 nM.

In turn, `CS(=O)(=O)CCC1(C(=O)N[C@@H](Cc2ccc(NC(=O)c3c(Cl)cccc3Cl)cc2)C(=O)O)CCCC1` [Example 358] displayed a melting point of 184 to 187 °C. In addition, in data set [2] (setting [3]), the IC50 is 75 nM.

In turn, `COCCC1(C(=O)N[C@@H](Cc2ccc(NC(=O)c3c(Cl)cccc3Cl)cc2)C(=O)OC)CCCC1` [Example 397, 4-[[(2,6-Dichlorophenyl)carbonyl]amino]-N-[[1-(2-methoxyethyl)cyclopentyl]carbonyl]-L-phenylalanine Methyl Ester] returned a melting point of 85 to 87 °C.

With `COc1ccc(CC2(C(=O)N[C@@H](Cc3ccc(NC(=O)c4c(Cl)cccc4Cl)cc3)C(=O)O)CCCC2)cc1` [Example 43, 4-[[(2,6-Dichlorophenyl)carbonyl]amino]-N-[[1-[(4-methoxyphenyl)methyl]cyclopentyl]carbonyl]-L-phenylalanine], the IC50 was 0.63 nM in data set [1] (read-out: IC50) and 36.5 nM in data set [2] (setting [4]).

Regarding `O=C(NCCC1(C(=O)N[C@@H](Cc2ccc(NC(=O)c3c(Cl)cccc3Cl)cc2)C(=O)O)CCCC1)c1cccc(C(F)(F)F)c1` [Example 258], the IC50 in data set [1] (IC50 nM) was 14 nM; in data set [2] (setting [3]), 1030 nM.

As for `COc1ccc(CC2(C(=O)N[C@@H](Cc3ccc(NC(=O)c4c(Cl)cccc4Cl)cc3)C(=O)O)CCCCC2)cc1` [Example 47, 4-[[(2,6-Dichlorophenyl)carbonyl]amino]-N-[[1-(4-methoxyphenylmethyl)cyclohexyl]carbonyl]-L-phenylalanine], the melting point fell in the range of 136 to 140 °C.
